# Data taken from US11185551B2, “Peripherally-restricted dual-acting kappa and delta opioid agonist for analgesia in pain states involving the inflammatory response” (Caventure Drug Discovery, Inc., priority 2017, dated 2021).
# What was measured:
# [1] = tested on: CFA-induced mechanical hyperalgesia; experiment: CFA model of rheumatoid arthritis pain in rats (joint compression thresholds); format: in vivo, male Sprague-Dawley rats; details: for improvement of compression thresholds vs vehicle: 30 mg/kg PO
# Description: Following IACUC approval and acclimation, inflammatory arthritis pain was induced in 55 male, Sprague-Dawley rats by intracapsular injection of 50 μL of 100% complete Freund's adjuvant (CFA) into the tibio-tarsal joint of the left hind leg. Mechanical hyperalgesia was assessed via joint compression thresholds (JCTs), JCTs were determined prior to CFA injection and 14 days post-CFA, prior to study article administration. At that time, 50 animals that met the inclusion criterion were randomly assigned to 5 groups with 10 animals per group (Table 3). To further confirm the validity as a model for arthritic pain, the anti-inflammatory cyclooxygenase-2 inhibitor, celecoxib, was used as an active control.
# Animals were administered a single dose of test or control compound on day 0 (i.e., 14 days after administration of CFA) and thresholds were determined 1, 2, and 4 hours after compound administration. JCTs in test compound-treated animals were compared to those in vehicle-treated animals to determine the analgesic efficacy of the test compound. All behavioral evaluations were performed by a blinded observer.
# Mechanical hyperalgesia was measured using a digital Randall-Selitto device (dRS; IITC Life Sciences©; Woodland Hills, Calif.; see Randall, L. O., and J. J. Selitto, “A Method for Measurement of Analgesic Activity on Inflamed Tissue.” Arch. Int. Pharmcodyn. 11 (1957): 409-19). Animals were allowed to acclimate to the testing room for a minimum of 15 minutes before testing. Animals were placed in a restraint sling that suspended the animal, leaving the hind limbs available for testing. The stimulus was applied to the ankle joint by a blunt tip and pressure was applied gradually over approximately 10 seconds. Joint compression threshold values were recorded at the first observed nocifensive behavior (vocalization, struggle, or withdrawal). One reading per joint was taken at each time point, and a maximum stimulus cutoff of 500 grams was used to prevent injury to the animal. The mean and standard error of the mean (SEM) were determined for ipsilateral and contralateral joints for each treatment group at each time point.
# All testing was performed in a blinded manner, with all experimenters involved in the study being unaware of the group assignment of any animal they were testing. Animals were assigned to treatment groups based on Day 0 pre-dosing JCTs so that group means of the ipsilateral JCTs were approximately equal. Animals were ranked by ipsilateral JCT and treatments assigned randomly within stratified sub-groups according to the total number of treatment groups in the study. The volume of test or control article injected was 5 mL/kg. The animals were dosed in sequence based on animal number so that the distribution of treatment across a given set of animals was not predictable.
# [2] = tested on: osteolytic bone cancer pain induced by MRMT-1 inoculation; experiment: MRMT-1 model of osteolytic bone cancer pain in the rat (percent weight bearing score); format: in vivo, female Sprague-Dawley rats
# Description: Osteolytic bone cancer was produced by an injection of 3000 mammary gland carcinoma cells (MRMT-1) into the intramedullary space of the tibia. Animals received either vehicle or Compound 1 (10 mg/kg) intraperitoneally on Day 0. Morphine (6 mg/kg) served as the positive control for this study and was administered via subcutaneous injection. Bone cancer pain was assessed by measuring hind limb percent weight bearing scores (percent WBS) prior to inoculation (study day −21), and prior to administration (BL), 1, 2, and 4 hours after administration on Day 0.
# Hind limb weight bearing scores (WBS) are measured using a Linton Incapacitance Tester (Stoelting Co.©, Wood Dale, Ill.; see Medhurst, S. J., K. Walker, M. Bowes, B. L. Kidd, M. Glatt, M. Muller, M. Hattenberger, J. Vaxelaire, T. O'Reilly, G. Wotherspoon, J. Winter, J. Green, and L. Urban. “A Rat Model of Bone Cancer Pain.” Pain 96 (2002): 129-40). Animals were allowed to acclimate to the testing room for a minimum of 15 minutes before testing. Animals are placed in an acrylic test chamber. When the animal is in the correct position in the test chamber an evaluation of force was taken, with the evaluation measuring the average force exerted individually by each hind paw over a three second interval. Three evaluations of force per animal are taken at each time point. The percent WBS for the injured leg is calculated for each evaluation of force using the following formula: […]
# The mean of the 3% WBS values is taken as the % WBS for that time point. The mean and standard error of the mean (SEM) are determined for each treatment group at each time point.
# Dosing: The volume of test or negative control article injected was 5 mL/kg via intraperitoneal injection or 2 mL/kg via subcutaneous injection for morphine. The animals were dosed in sequence based on animal number, so that the distribution of treatment across a given set of animals was not predictable (Table 7).
# [3] = tested on: SNL-induced mechanical hyperalgesia; experiment: Spinal nerve ligation (SNL) model for neuropathic pain in the rat (paw compression thresholds); format: in vivo, male Sprague-Dawley rats
# Description: Following IACUC approval and acclimation, neuropathy was induced in 55 male, Sprague-Dawley rats by surgically ligating the 5th and 6th lumbar spinal nerves (L5 and L6), a procedure also known as spinal nerve ligation (SNL). Mechanical sensitivity was assessed via paw compression thresholds using a digital Randall-Selitto device. Thresholds were determined prior to surgery and 15 days post-surgery, prior to study article administration. At that time, 50 animals that met the inclusion criteria were assigned to 5 groups with 10 animals per group (Table 5). To further confirm the validity as a model for neuropathic pain, gabapentin was used as an active control.
# Animals were administered a single dose of test or control compound on day 0 (i.e., 15 days after SNL) and thresholds were determined 1, 2, and 4 hours after compound administration. Response thresholds in test compound-treated animals were compared to those in vehicle-treated animals to determine the analgesic efficacy of the test compound. All behavioral evaluations were performed by a blinded observer.
# Mechanical hyperalgesia was measured using a digital Randall-Selitto device (dRS; IITC Life Sciences©; Woodland Hills, Calif.) (see Randall, L. O., and J. J. Selitto. “A Method for Measurement of Analgesic Activity on Inflamed Tissue.” Arch. Int. Pharmcodyn. 11 (1957): 409-19). Animals were allowed to acclimate to the testing room for a minimum of 15 minutes before testing. Animals were placed in a restraint sling that suspends the animal, leaving the hind limbs available for testing. The stimulus was applied to the plantar surface of the hind paw by a cone-shaped tip and pressure was applied gradually over approximately 10 seconds. Paw compression threshold values were recorded at the first observed nocifensive behavior (vocalization, struggle, or withdrawal). One reading per paw was taken at each time point, and a maximum stimulus cutoff of 300 grams was used to prevent injury to the animal. The mean and standard error of the mean (SEM) were determined for ipsilateral and contralateral paws for each treatment group at each time point.
# All testing was performed in a blinded manner, with all experimenters involved in the study being unaware of the group assignment of any animal they were testing.
# Animals were assigned to treatment groups based on Day 0 pre-dosing dRS paw compression thresholds so that group means of the ipsilateral paw compression thresholds were approximately equal. Animals were ranked by ipsilateral paw compression threshold measurement from lowest to highest and treatments assigned randomly within stratified sub-groups according to the total number of treatment groups in the study.
# The volume of test or control article injected was 5 mL/kg. The animals were dosed in sequence based on animal number, so that the distribution of treatment across a given set of animals was not predictable.
# [4] = tested on: formalin-evoked spontaneous nociceptive behaviors; experiment: Formalin model of pain in mice; format: in vivo, C57BL6 mice
# Description: The objective of this study was to evaluate the effects of Compound 1 and a peripherally-restricted kappa agonist (ICI204448) on formalin-evoked spontaneous nociceptive behaviors in mice. The study was performed by video recording of formalin-induced nociceptive behavior and then off-line scoring using a computer.
# Subcutaneous plantar injection of formalin causes a bi-phasic nocifensive behavioral response in rodents. The early phase (phase 1) lasts for about 5-10 minutes, following which an interphase occurs without any discernible nociceptive reactions, after which the late phase (phase 2) nociceptive reaction ensues continuing from about 20-60 min following formalin injection. Thus, phase 2 of the formalin model is a model of continuously present, persistent pain, and is widely used for rapid screening of novel analgesic compounds. The model encompasses inflammatory, neurogenic and central mechanisms of nociception, and the late phase (phase 2), in particular, is considered as a pharmacodynamic surrogate of central sensitization.
# In the present study, the effects of Compound 1 and ICI204448 were assessed from 0-5 minutes for the early phase (phase 1) and from 20-35 minutes for the late phase (phase 2) of formalin-induced nociceptive behavior.
# Following IACUC approval and acclimation C57BL6 mice (Charles River Canada Inc.), 20-30 g, were randomly assigned into groups with 8 mice per group as provided in Table 1:
# All animals were acclimated to the observation chamber for about 15 minutes immediately prior to formal in injection. […]
# Following injection of the formalin all animals were returned immediately to the observation chamber and formalin-evoked spontaneous nociceptive behaviors in the mice were continuously recorded for 0-40 minutes using a commercial camcorder. […]
# Scoring from the recorded video files were done off-line using a computer by a blinded observer who has been validated to score such nociceptive behaviors in rodents. The total (cumulative) time spent in a 5-minute bin was recorded using a stop-watch for the following nociceptive behaviors: biting and licking of the formalin-injected paw.
# Effects of the ICI204448 or Compound 1 were assessed in the following time periods: 0-5 minutes for the early phase (phase 1) and 20-35 minutes for the late phase (phase 2).
# Mice were injected with formalin in the hind paw after pretreatment with vehicle, high and low doses of a peripherally-restricted kappa opioid agonist (ICI204448) and high and low doses of the peripherally-restricted Compound 1. Pain was measured for 35 minutes after injection. Additionally, urine output was measured using metabolic cages in each group of mice. […]
compound,measurement,setting,value
"Cc1ccc(-c2cc(C(F)(F)F)nn2-c2ccc(S(N)(=O)=O)cc2)cc1 [Celecoxib, reference compound]",improvement of compression thresholds vs vehicle,[1]; 1-hour,did not significantly improve thresholds
same,improvement of compression thresholds vs vehicle,[1]; 2-hour and 4-hour,did show improvement compared to vehicle
"CC(C)C[C@H]1CN2C(=CC3=NC[C@H](C(C)C)N3C[C@@H]2Cc2ccc(O)cc2)N1CCc1ccccc1 [Compound 1, 4-(((2S,5S,8S)-2-isobutyl-8-isopropyl-1-phenethyl-2,3,5,6,8,9-hexahydro-1H-diimidazo[1,2-d:2′,1′-g][1,4]diazepin-5-yl)methyl)phenol]",reversal of hind limb weight bearing asymmetry vs pre-dosing baseline,"[2]; 10 mg/kg IP, 4 hours",significant reversal of hind limb weight bearing asymmetry
same,reversal of SNL-induced mechanical hyperalgesia,"[3]; 1 mg/kg IP, any time point tested (1, 2, 4 hours)",did not significantly reverse SNL-induced mechanical hyperalgesia
same,reversal of SNL-induced mechanical hyperalgesia,"[3]; 5 mg/kg IP, 1-hour",did not significantly reverse SNL-induced mechanical hyperalgesia
same,reversal of SNL-induced mechanical hyperalgesia,"[3]; 5 mg/kg IP, 2-hour and 4-hour",did significantly reverse SNL-induced mechanical hyperalgesia
same,reversal of SNL-induced mechanical hyperalgesia,"[3]; 10 mg/kg IP, 1-hour",did not significantly reverse SNL-induced mechanical hyperalgesia
same,reversal of SNL-induced mechanical hyperalgesia,"[3]; 10 mg/kg IP, 2-hour and 4-hour",did significantly reverse SNL-induced mechanical hyperalgesia
same,reversal of mechanical hyperalgesia compared with active control,[3]; Compound 1 5 mg/kg and 10 mg/kg vs gabapentin 100 mg/kg,"did not differ significantly from the active control, gabapentin"
same,"pain behaviors, effect of low dose","[4]; 1 mg/kg IP, phase 2, compared with ICI204448 10 mg/kg",the same effect as a high dose of ICI204448
same,"pain response, effect of high dose","[4]; 10 mg/kg IP, phase 2",complete elimination of the pain response
same,time spent on pain (nociceptive) behaviors vs ICI204448,"[4]; 30-35 minutes, Compound 1 dose less than 10% of ICI204448 on a molar basis",at least as effective as ICI204448
same,pain behaviors (biting and licking of formalin-injected paw),"[4]; IP 30 min before formalin, 20-25, 25-30, 30-35 minutes (phase 2), compared with vehicle and ICI204448",reduced pain behaviors
same,reversal of mechanical hyperalgesia (JCT),"[1]; 1 mg/kg IP, 2-hour and 4-hour",significantly reversed mechanical hyperalgesia
same,reversal of mechanical hyperalgesia (JCT),"[1]; 5 mg/kg IP, 2-hour and 4-hour",significantly reversed mechanical hyperalgesia
same,reversal of mechanical hyperalgesia (JCT),"[1]; 10 mg/kg IP, 1, 2, and 4 hours post dose",significantly reversed mechanical hyperalgesia
same,reversal in mechanical hyperalgesia compared with active control,[1]; Compound 1 IP vs celecoxib 30 mg/kg PO,"comparable to the active control, celecoxib"
"NCC1(CC(=O)O)CCCCC1 [Gabapentin, reference compound]",reversal of SNL-induced mechanical hyperalgesia,"[3]; 100 mg/kg IP, 1, 2, and 4-hours",significantly reversed SNL-induced mechanical hyperalgesia
CN1CC[C@]23c4c5ccc(O)c4O[C@H]2[C@@H](O)C=C[C@H]3[C@H]1C5 [Morphine],reversal of hind limb weight bearing asymmetry vs pre-dosing baseline,"[2]; 6 mg/kg subcutaneous, 1 and 2 hours",time-dependent reversal of hind limb weight bearing asymmetry
same,improvement in weight-bearing,"[2]; 6 mg/kg subcutaneous, 4-hours",did not produce significant improvement
